The subject of this assay is MOLM-13 leukemia cells carrying MLL-AF9 fusion. The assay can be described thus: cell viability assay (WST-8), MOLM-13. The format is cell-based. Conditions: Homo sapiens, MOLM-13, 96 h. On the technique in general: Tetrazolium dyes change colour on reduction, which living cells bring about.
Where [1] appears, read: Table 2A, 4 days treatment, read-out: MOLM-13 IC50.

Like-named read-outs stand apart in the source and are kept apart here. Starred links: 1 amine or outer side, 2 acyl side, 3 side chain; linkers in the order of their positions; H or OH if unused. Positions of bridges follow the written chain, without caps; N, C: chain ends. Non-standard residues stand in square brackets, D forms with d. Residues, ends and D or L forms follow the SMILES beside them. ξ: configuration not given here. *: point of attachment. Orn(2-imidazolinyl) = N[C@@H](CCCNC1=NCCN1)C(=O)O; dαMeDab = C[C@](CCN[*:3])(N[*:1])C(=O)[*:2]; Lys(Me2) = CN(C)CCCC[C@H](N)C(=O)O; Cit = NC(=O)NCCC[C@H](N)C(=O)O; dCha = N[C@H](CC1CCCCC1)C(=O)O; dPhg = N[C@@H](C(=O)O)c1ccccc1; ξhhPhe = NC(CCCc1ccccc1)C(=O)O; ξhPhe = NC(CCc1ccccc1)C(=O)O; Imidazol2yl = c1c[nH]c(*)n1; Pyridin(2-yl) = c1ccc(*)nc1; 2Pyrimidinyl = c1cnc(*)nc1; Isobutyryl = CC(C)C(=O)*; Orn = NCCC[C@H](N)C(=O)O; Dab = NCC[C@H](N)C(=O)O; Abu = CC[C@H](N)C(=O)O; Dap = NC[C@H](N)C(=O)O; ξOrn = NCCCC(N)C(=O)O; Acryloyl = C=CC(=O)*; ξDab = NCCC(N)C(=O)O; ClAc = O=C(CCl)*

Turning to `CC[C@@H]1NC(=O)[C@H](CCCCN(C)C)NC(=O)[C@](C)(NC(=O)C(C)C)CCNC(=O)[C@@H](c2ccccc2)NC1=O` [Cpd. No. 6, N-((3R,6S,9S,12R)-9-(4-(dimethylamino)butyl)-6-ethyl-12-methyl-2,5,8,11-tetraoxo-3-phenyl-1,4,7,10-tetraazacyclotetradecan-12-yl)isobutyramide] (Isobutyryl-[dαMeDab][Lys(Me2)][Abu][dPhg]; lactam 1-C), under “read-out: MOLM-13 IC50 (μM)”, the half-maximal inhibitory concentration (IC50) (usually the concentration at which inhibition is half-maximal) is more than 10 µM.
Consider `CC[C@@H]1NC(=O)[C@H](CNC2CCN(C)CC2)NC(=O)[C@](C)(NC(=O)C(C)C)CCNC(=O)[C@@H](c2ccccc2)NC1=O` [Cpd. No. 7, N-((3R,6S,9S,12R)-6-ethyl-12-methyl-9-(((1-methylpiperidin-4-yl)amino)methyl)-2,5,8,11-tetraoxo-3-phenyl-1,4,7,10-tetraazacyclotetradecan-12-yl)isobutyramide], for which the IC50 (read-out: MOLM-13 IC50 (μM)) is more than 10 µM.
On the same count and under the same terms, to `CC[C@@H]1NC(=O)[C@H](CCNC2CCN(C)CC2)NC(=O)[C@](C)(NC(=O)C(C)C)CCNC(=O)[C@@H](c2ccccc2)NC1=O` [Cpd. No. 8, N-((3R,6S,9S,12R)-6-ethyl-12-methyl-9-(2-((1-methylpiperidin-4-yl)amino)ethyl)-2,5,8,11-tetraoxo-3-phenyl-1,4,7,10-tetraazacyclotetradecan-12-yl)isobutyramide] belongs more than 10 µM; to `CC[C@@H]1NC(=O)[C@H](CCCNC2CCN(C)CC2)NC(=O)[C@](C)(NC(=O)C(C)C)CCNC(=O)[C@@H](c2ccccc2)NC1=O` [Cpd. No. 9, N-((3R,6S,9S,12R)-6-ethyl-12-methyl-9-(3-((1-methylpiperidin-4-yl)arnino)propyl)-2,5,8,11-tetraoxo-3-phenyl-1,4,7,10-tetraazacyclotetradecan-12-yl)isobutyramide], more than 10 µM.
The same measure, in the same setting: to `CC[C@@H]1NC(=O)[C@H](CNc2ccccn2)NC(=O)[C@](C)(NC(=O)C(C)C)CCNC(=O)[C@@H](c2ccccc2)NC1=O` [Cpd. No. 10, N-((3R,6S,9S,12R)-6-ethyl-12-methyl-2,5,8,11-tetraoxo-3-phenyl-9-((pyridin-2-ylamino)methyl)-1,4,7,10-tetraazacyclotetradecan-12-yl)isobutyramide] (Isobutyryl-[dαMeDab][Dap](Pyridin(2-yl))[Abu][dPhg]; lactam 1-C) belongs more than 10 µM.
As for `CC[C@@H]1NC(=O)C(CCNc2ccccn2)NC(=O)[C@](C)(NC(=O)C(C)C)CCNC(=O)[C@@H](c2ccccc2)NC1=O` (stereo partly drawn) [Cpd. No. 11, N-((3R,6S,12R)-6-ethyl-12-methyl-2,5,8,11-tetraoxo-3-phenyl-9-(2-(pyridin-2-ylamino)ethyl)-1,4,7,10-tetraazacyclotetradecan-12-yl)isobutyramide] (Isobutyryl-[dαMeDab][ξDab](Pyridin(2-yl))[Abu][dPhg]; lactam 1-C), where the note is “read-out: MOLM-13 IC50 (μM)”, the half-maximal inhibitory concentration (IC50) is more than 10 µM.
As to `CC[C@@H]1NC(=O)C(CCc2ccccc2)NC(=O)[C@](C)(NC(=O)C(C)C)CCNC(=O)[C@@H](c2ccccc2)NC1=O` (stereo partly drawn) [Cpd. No. 13, N-((3R,6S,12R)-6-ethyl-12-methyl-2,5,8,11-tetraoxo-9-phenethyl-3-phenyl-1,4,7,10-tetraazacyclotetradecan-12-yl)isobutyramide] (Isobutyryl-[dαMeDab][ξhPhe][Abu][dPhg]; lactam 1-C), the half-maximal inhibitory concentration (IC50) (read-out: MOLM-13 IC50 (μM)) was more than 10 µM.
Take `CC[C@@H]1NC(=O)C(CCCc2ccccc2)NC(=O)[C@](C)(NC(=O)C(C)C)CCNC(=O)[C@@H](c2ccccc2)NC1=O` (stereo partly drawn) [Cpd. No. 14, N-((3R,6S,12R)-6-ethyl-12-methyl-2,5,8,11-tetraoxo-3-phenyl-9-(3-phenylpropyl)-1,4,7,10-tetraazacyclotetradecan-12-yl)isobutyramide] (Isobutyryl-[dαMeDab][ξhhPhe][Abu][dPhg]; lactam 1-C): the IC50 (read-out: MOLM-13 IC50 (μM)) is more than 10 µM.
In the case of `CC[C@@H]1NC(=O)[C@H](CCC(N)=O)NC(=O)[C@](C)(NC(=O)C(C)C)CCNC(=O)[C@@H](c2ccccc2)NC1=O` [Cpd. No. 15, N-((3R,6S,12R)-9-(3-amino-3-oxopropyl)-6-ethyl-12-methyl-2,5,8,11-tetraoxo-3-phenyl-1,4,7,10-tetraazacyclotetradecan-12-yl)isobutyramide] (Isobutyryl-[dαMeDab]Q[Abu][dPhg]; lactam 1-C), under “read-out: MOLM-13 IC50 (μM)”, the 50% inhibitory concentration (IC50) was more than 10 µM.
The same measure, in the same setting: in the case of `CC[C@@H]1NC(=O)[C@H](CCCNC(N)=O)NC(=O)[C@](C)(NC(=O)C(C)C)CCNC(=O)[C@@H](c2ccccc2)NC1=O` [Cpd. No. 16, N-((3R,6S,9S,12R)-6-ethyl-12-methyl-2,5,8,11-tetraoxo-3-phenyl-9-(3-ureidopropyl)-1,4,7,10-tetraazacyclotetradecan-12-yl)isobutyramide] (Isobutyryl-[dαMeDab][Cit][Abu][dPhg]; lactam 1-C) it was more than 10 µM; in that of `CC[C@@H]1NC(=O)[C@H](CCNC2=NCCN2)NC(=O)[C@](C)(NC(=O)C(C)C)CCNC(=O)[C@@H](c2ccccc2)NC1=O` [Cpd. No. 18, N-((3R,6S,9S,12R)-9-(2-((4,5-dihydro-1H-imidazol-2-yl)amino)ethyl)-6-ethyl-12-methyl-2,5,8,11-tetraoxo-3-phenyl-1,4,7,10-tetraazacyclotetradecan-12-yl)isobutyramide], more than 10 µM.
Still for that read-out and setting: to `CC[C@@H]1NC(=O)[C@H](CCNc2ncc[nH]2)NC(=O)[C@](C)(NC(=O)C(C)C)CCNC(=O)[C@@H](c2ccccc2)NC1=O` [Cpd. No. 19, N-((3R,6S,9S,12R)-9-(2-((1H-imidazol-2-yl)amino)ethyl)-6-ethyl-12-methyl-2,5,8,11-tetraoxo-3-phenyl-1,4,7,10-tetraazacyclotetradecan-12-yl)isobutyramide] (Isobutyryl-[dαMeDab][Dab](Imidazol2yl)[Abu][dPhg]; lactam 1-C) belongs more than 10 µM; to `CC[C@@H]1NC(=O)[C@H](CCCNc2ncc[nH]2)NC(=O)[C@](C)(NC(=O)C(C)C)CCNC(=O)[C@@H](c2ccccc2)NC1=O` [Cpd. No. 20, N-((3R,6S,9S,12R)-9-(3-((1H-imidazol-2-yl)amino)propyl)-6-ethyl-12-methyl-2,5,8,11-tetraoxo-3-phenyl-1,4,7,10-tetraazacyclotetradecan-12-yl)isobutyramide] (Isobutyryl-[dαMeDab][Orn](Imidazol2yl)[Abu][dPhg]; lactam 1-C), more than 10 µM.
With `CC[C@@H]1NC(=O)[C@H](CCCNc2ncccn2)NC(=O)[C@](C)(NC(=O)C(C)C)CCNC(=O)[C@@H](c2ccccc2)NC1=O` [Cpd. No. 21, N-((3R,6S,12R)-6-ethyl-12-methyl-2,5,8,11-tetraoxo-3-phenyl-9-(3-(pyrimidin-2-ylamino)propyl)-1,4,7,10-tetraazacyclotetradecan-12-yl)isobutyramide] (Isobutyryl-[dαMeDab][Orn](2Pyrimidinyl)[Abu][dPhg]; lactam 1-C), where the note is “read-out: MOLM-13 IC50 (μM)”, the IC50 was more than 10 µM.
Take `CC[C@@H]1NC(=O)[C@H](CCCN/C(N)=N/CC(F)(F)F)NC(=O)[C@](C)(NC(=O)C(C)C)CCNC(=O)[C@@H](c2ccccc2)NC1=O` [Cpd. No. 22, N-((3R,6S,9S,12R)-6-ethyl-12-methyl-2,5,8,11-tetraoxo-3-phenyl-9-(3-((E)-2-(2,2,2-trifluoroethyl)guanidino)propyl)-1,4,7,10-tetraazacyclotetradecan-12-yl)isobutyramide]: the IC50 (read-out: MOLM-13 IC50 (μM)) is more than 10 µM.
Take `C=CC(=O)NCCC[C@@H]1NC(=O)[C@](C)(NC(=O)C(C)C)CCNC(=O)[C@@H](c2ccccc2)NC(=O)[C@H](CC)NC1=O` [Cpd. No. 23, N-(3-((5S,8R,13R)-5-ethyl-13-isobutyramido-13-methyl-3,6,9,14-tetraoxo-8-phenyl-1,4,7,10-tetraazacyclotetradecan-2-yl)propyl)acrylamide] (Isobutyryl-[dαMeDab][Orn](Acryloyl)[Abu][dPhg]; lactam 1-C): under setting [1], the concentration for half-maximal inhibition (IC50) was more than 10 µM.
Turning to `C=CC(=O)NCCCC[C@@H]1NC(=O)[C@](C)(NC(=O)C(C)C)CCNC(=O)[C@@H](c2ccccc2)NC(=O)[C@H](CC)NC1=O` [Cpd. No. 24, N-(4-((2S,5S,8R,13R)-5-ethyl-13-isobutyramido-13-methyl-3,6,9,14-tetraoxo-8-phenyl-1,4,7,10-tetraazacyclotetradecan-2-yl)butyl)acrylamide] (Isobutyryl-[dαMeDab]K(Acryloyl)[Abu][dPhg]; lactam 1-C), the half-maximal inhibitory concentration (IC50) under setting [1] was more than 10 µM.
`CC[C@@H]1NC(=O)C(CCCNC(=O)CCl)NC(=O)[C@](C)(NC(=O)C(C)C)CCNC(=O)[C@@H](c2ccccc2)NC1=O` (stereo partly drawn) [Cpd. No. 25, N-((3R,6S,12R)-9-(3-(2-chloroacetamido)propyl)-6-ethyl-12-methyl-2,5,8,11-tetraoxo-3-phenyl-1,4,7,10-tetraazacyclotetradecan-12-yl)isobutyramide] (Isobutyryl-[dαMeDab][ξOrn](ClAc)[Abu][dPhg]; lactam 1-C): the IC50 under setting [1] is more than 10 µM.
Take `CC[C@@H]1NC(=O)[C@H](CCCNC(=N)NC(C)=O)NC(=O)[C@](C)(NC(=O)C(C)C)CCNC(=O)[C@@H](CC2CCCCC2)NC1=O` [Cpd. No. 26, N-((3R,6S,9S,12R)-9-(3-(3-acetylguanidino)propyl)-3-(cyclohexylmethyl)-6-ethyl-12-methyl-2,5,8,11-tetraoxo-1,4,7,10-tetraazacyclotetradecan-12-yl)isobutyramide] (Isobutyryl-[dαMeDab]R(Ac)[Abu][dCha]; lactam 1-C): the IC50 (read-out: MOLM-13 IC50 (μM)) is 1.02 µM.
Still for that read-out and setting: to `CC[C@@H]1NC(=O)[C@H](CCCNC2=NCCN2)NC(=O)[C@](C)(NC(=O)C(C)C)CCNC(=O)[C@@H](CC2CCCCC2)NC1=O` [Cpd. No. 30, N-((3R,6S,9S,12R)-3-(cyclohexylmethyl)-9-(3-((4,5-dihydro-1H-imidazol-2-yl)amino)propyl)-6-ethyl-12-methyl-2,5,8,11-tetraoxo-1,4,7,10-tetraazacyclotetradecan-12-yl)isobutyramide] (Isobutyryl-[dαMeDab][Orn(2-imidazolinyl)][Abu][dCha]; lactam 1-C) belongs 0.67 µM.

The values are drawn from patent US20210130401A1, “PEPTIDOMIMETIC INHIBITORS OF THE WDR5-MLL INTERACTION” (THE REGENTS OF THE UNIVERSITY OF MICHIGAN, priority 2017, published 2021).
